In US6355635B1, “Compounds for the treatment of obesity” (Pfizer Inc., priority 1999, dated 2002):

Test system: endogenous NPY response
Experiment: Endogenous NPY response in Bowes melanoma host cells
Conditions: 10 uM; human Bowes melanoma cells (HMCB), low levels of Y1 responses
Method: This plasmid construct is used along with calcium phosphates to stably transfect human Bowes melanoma cells (HMCB; obtained from ATCC, Rockville, Md.), a cell line in which several Gαi-linked receptors are expressed at reasonable levels and are coupled to functional responses. Cells are maintained at 37° C. and 5% CO2 in Eagle's minimum essential medium with 0.1 mM non-essential amino acids, 1.0 mM sodium pyruvate and 25 mM HEPES which is supplemented with 10% fetal bovine serum (pH 7.3).

NC(N)=NCCC[C@@H](NC(=O)C(c1ccccc1)c1ccccc1)C(=O)NCc1ccc(O)cc1 [BIBP3226]
block of the endogenous NPY response: completely blocks
